# Test: recombinant UMI read abundance after kanamycin selection (control-corrected) (log10(CPM+1)); higher = more efficient recombination; extreme values may be limits of the assay; sequences stand for … in AGTGCAGAGAAAATCGGCCAGTTTTCTCTGCCTGCAGTCCGCATGCCGTGGGACCCCTTGGGTTCTAACCTGTTGCCTAGATTTATGCAGCGGACTGCCTTTCTCCCAAAGTGATAAACCGG…AGGTTGGTTTCACT; site = the 11-nt donor
# Method in brief: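 Values, expressed as log10(CPM+1), derive from recombinant UMI counts converted to CPM, averaged across replicates and scaled by control-derived factors. Plating was with IPTG (0.07 mM) plus kanamycin or unselected, two replicates each. The screen pooled donor and donor-binding-loop pairs for the IS621 bridge recombinase in Escherichia coli.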
# 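Also: IS621 bridge recombinase in Escherichia coli cells against a fixed T5 target plasmid.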
row,Sequence,recombinant UMI read abundance (log10)
1,GCTACTGCATGGACCGGTTTTCCCGGTAATCCGTATTTGCC (site GCTAATGCTGG),0
2,GCTACTGCATGGACCGGTTTTCCCGGTAATCCGTATTTGCC (site GCTACAGCTGG),0
3,GCTACTGCATGGACCGGTTTTCCCGGTAATCCGTATTTGCC (site GCTACCGCTGG),0
4,GCTACTGCATGGACCGGTTTTCCCGGTAATCCGTATTTGCC (site GCTACGGCTGG),0
5,GCTACTGCATGGACCGGTTTTCCCGGTAATCCGTATTTGCC (site GCTACTACTGG),1.21
6,GCTACTGCATGGACCGGTTTTCCCGGTAATCCGTATTTGCC (site GCTACTCCTGG),0
7,GCTACTGCATGGACCGGTTTTCCCGGTAATCCGTATTTGCC (site GCTACTGCTAG),0.00694
8,GCTACTGCATGGACCGGTTTTCCCGGTAATCCGTATTTGCC (site GCTACTGCTCG),0
9,GCTACTGCATGGACCGGTTTTCCCGGTAATCCGTATTTGCC (site GCTACTGCTGA),0
10,GCTACTGCATGGACCGGTTTTCCCGGTAATCCGTATTTGCC (site GCTACTGCTGC),0
11,GCTACTGCATGGACCGGTTTTCCCGGTAATCCGTATTTGCC (site GCTACTGCTGG),1.11
12,GCTACTGCATGGACCGGTTTTCCCGGTAATCCGTATTTGCC (site GCTACTGCTGT),0
13,GCTACTGCATGGACCGGTTTTCCCGGTAATCCGTATTTGCC (site GCTACTGCTTG),0.255
14,GCTACTGCATGGACCGGTTTTCCCGGTAATCCGTATTTGCC (site GCTACTTCTGG),0
15,GCTACTGCATGGACCGGTTTTCCCGGTAATCCGTATTTGCC (site GCTAGTGCTGG),0
16,GCTACTGCATGGACCGGTTTTCCCGGTAATCCGTATTTGCC (site GCTATTGCTGG),0
17,GCTACTGCATGGACCGGTTTTCCCGGTAATCCGTATTTGCC (site GCTCCTGCTGG),0
18,GCTACTGCATGGACCGGTTTTCCCGGTAATCCGTATTTGCC (site GCTGCTGCTGG),0.274
19,GCTACTGCATGGACCGGTTTTCCCGGTAATCCGTATTTGCC (site GCTTCTGCTGG),0.74
20,GCTACTGCATGGACCGGTTTTCCCGGTAATCCGTATTTGCC (site GGTACTGCTGG),1.03
21,GCTACTGCATGGACCGGTTTTCCCGGTAATCCGTATTTGCC (site GTTACTGCTGG),0.815
22,GCTACTGCATGGACCGGTTTTCCCGGTAATCCGTATTTGCC (site TCTACTGCTGG),0.424
23,GCTAGCCCATGGACCGGTTTTCCCGGTAATCCGTATTTGAT (site GCTAGCCCTAT),0.197
24,GCTAGCCCATGGACCGGTTTTCCCGGTAATCCGTATTTGAT (site GCTCGCCCTAT),0.0134
25,GCTAGCCCATGGACCGGTTTTCCCGGTAATCCGTATTTGAT (site GCTGGCCCTAT),0.00566

row,Sequence,recombinant UMI read abundance (log10)
1,GCTAGCCCATGGACCGGTTTTCCCGGTAATCCGTATTTGAT (site GCTTGCCCTAT),0.00951
2,GCTCAGGCATGGACCGGTTTTCCCGGTAATCCGTATTTGTA (site GCTCAGGCTTA),1.71
3,GCTCGAGCATGGACCGGTTTTCCCGGTAATCCGTATTTGCA (site GATCGAGCTTG),0.25
4,GCTCGAGCATGGACCGGTTTTCCCGGTAATCCGTATTTGCA (site GCTCGAGCTTG),2.67
5,GCTCGAGCATGGACCGGTTTTCCCGGTAATCCGTATTTGCA (site GGTCGAGCTTG),0.679
6,GCTCGAGCATGGACCGGTTTTCCCGGTAATCCGTATTTGCA (site GTTCGAGCTTG),0.655
7,GCTCGATCATGGACCGGTTTTCCCGGTAATCCGTATTTGCA (site GCTCGATCTTG),2.07
8,GCTCGCGCATGGACCGGTTTTCCCGGTAATCCGTATTTGGT (site GCTCGCGCTAC),0.984
9,GCTCGGGCATGGACCGGTTTTCCCGGTAATCCGTATTTGAG (site GCTCGGGCTCT),0.866
10,GCTCTAGCATGGACCGGTTTTCCCGGTAATCCGTATTTGAC (site GCTCTAGCTGT),1.67
11,GCTCTCGCATGGACCGGTTTTCCCGGTAATCCGTATTTGTT (site GCTCTCGCTAA),0.534
12,GCTGAACCATGGACCGGTTTTCCCGGTAATCCGTATTTGTC (site GCTGAACCTGA),0
13,GCTGCGTCATGGACCGGTTTTCCCGGTAATCCGTATTTGGT (site GCTGCGTCTAC),0.732
14,GCTGCTCCATGGACCGGTTTTCCCGGTAATCCGTATTTGCT (site GCTGCTCCTAG),0.276
15,GCTGCTGCATGGACCGGTTTTCCCGGTAATCCGTATTTGCC (site GCTACTGCTGG),0.315
16,GCTGCTGCATGGACCGGTTTTCCCGGTAATCCGTATTTGCC (site GCTCCTGCTGG),0
17,GCTGCTGCATGGACCGGTTTTCCCGGTAATCCGTATTTGCC (site GCTGCTGCTGG),1.18
18,GCTGCTGCATGGACCGGTTTTCCCGGTAATCCGTATTTGCC (site GCTTCTGCTGG),0
19,GCTGCTTCATGGACCGGTTTTCCCGGTAATCCGTATTTGTA (site GCTGCTTCTTA),0.981
20,GCTGGAGCATGGACCGGTTTTCCCGGTAATCCGTATTTGAG (site GCTGGAGCTCT),1.41
21,GCTGGCGCATGGACCGGTTTTCCCGGTAATCCGTATTTGTA (site GCTGGCGCTTA),0.982
22,GCTGTTACATGGACCGGTTTTCCCGGTAATCCGTATTTGCG (site GCTGTTACTCG),1.48
23,GCTTAGTCATGGACCGGTTTTCCCGGTAATCCGTATTTGTT (site GCTTAGTCTAA),2.37
24,GCTTGCACATGGACCGGTTTTCCCGGTAATCCGTATTTGAT (site GCTTGCACTAT),1.16
25,GCTTGCACATGGACCGGTTTTCCCGGTAATCCGTATTTGAT (site GCTTGCCCTAT),0.00585

row,Sequence,recombinant UMI read abundance (log10)
1,GCTTGCACATGGACCGGTTTTCCCGGTAATCCGTATTTGAT (site GCTTGCGCTAT),0.0165
2,GCTTGCACATGGACCGGTTTTCCCGGTAATCCGTATTTGAT (site GCTTGCTCTAT),0.396
3,GCTTGCCCATGGACCGGTTTTCCCGGTAATCCGTATTTGCT (site GCTTGCCCTAA),0.0261
4,GCTTGCCCATGGACCGGTTTTCCCGGTAATCCGTATTTGCT (site GCTTGCCCTAC),0.00338
5,GCTTGCCCATGGACCGGTTTTCCCGGTAATCCGTATTTGCT (site GCTTGCCCTAG),0.858
6,GCTTGCCCATGGACCGGTTTTCCCGGTAATCCGTATTTGCT (site GCTTGCCCTAT),0.0783
7,GCTTGCGCATGGACCGGTTTTCCCGGTAATCCGTATTTGGT (site GCTTGCGCTAC),0.514
8,GCTTGCTCATGGACCGGTTTTCCCGGTAATCCGTATTTGAT (site GCTTGCACTAT),0.00386
9,GCTTGCTCATGGACCGGTTTTCCCGGTAATCCGTATTTGAT (site GCTTGCCCTAT),0
10,GCTTGCTCATGGACCGGTTTTCCCGGTAATCCGTATTTGAT (site GCTTGCGCTAT),0.00706
11,GCTTGCTCATGGACCGGTTTTCCCGGTAATCCGTATTTGAT (site GCTTGCTCTAT),1.46
12,GCTTGTCCATGGACCGGTTTTCCCGGTAATCCGTATTTGAT (site GCTTGACCTAT),0.00264
13,GCTTGTCCATGGACCGGTTTTCCCGGTAATCCGTATTTGAT (site GCTTGCCCTAT),0.021
14,GCTTGTCCATGGACCGGTTTTCCCGGTAATCCGTATTTGAT (site GCTTGGCCTAT),0
15,GCTTGTCCATGGACCGGTTTTCCCGGTAATCCGTATTTGAT (site GCTTGTCCTAT),0
16,GCTTGTTCATGGACCGGTTTTCCCGGTAATCCGTATTTGAA (site GCTTGTTCTTT),0.489
17,GCTTGTTCATGGACCGGTTTTCCCGGTAATCCGTATTTGCT (site GCTTGTTCTAG),1.84
18,GGAAACCCATGGACCGGTTTTCCCGGTAATCCGTATTTGCC (site GGAAACCCTGG),0
19,GGAACGACATGGACCGGTTTTCCCGGTAATCCGTATTTGAT (site GGAACGACTAT),1.43
20,GGAATGCCATGGACCGGTTTTCCCGGTAATCCGTATTTGCA (site GGAATGCCTTG),0
21,GGACAGCCATGGACCGGTTTTCCCGGTAATCCGTATTTGCA (site GGACAGCCTTG),1.07
22,GGACCATCATGGACCGGTTTTCCCGGTAATCCGTATTTGTC (site GGACCATCTGA),2.27
23,GGACCGGCATGGACCGGTTTTCCCGGTAATCCGTATTTGGG (site GGACCGGCTCC),0.0163
24,GGACTCACATGGACCGGTTTTCCCGGTAATCCGTATTTGTG (site GGACTCACTCA),0.00312
25,GGACTTCCATGGACCGGTTTTCCCGGTAATCCGTATTTGAA (site GGACTTCCTTT),1.42

# Source: the supplement of paper PMC11208160
